Assay [1] addresses T1, DNA-dependent protein kinase (DNA-PK) (Homo sapiens, UniProt P78527).
T1 construct: endogenous in cells; host or cells: Jurkat (ATCC TIB-152, clone E6-1) and Ramos (ATCC CRL-1596), 1:1 lysate mix
The experiment in a line: kinobeads assay, DNA-PK. The format is binding. The conditions noted are these: 1:1 mix of Jurkat and Ramos cell lysates, read-out: Inhibition values (IC50 in μM) as determined in the kinobeads assay, DNA-PK. The gist of the method: (§1)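 Inhibitor at serial dilutions (1:3, 9 steps) competed for binding to an affinity matrix of two immobilized ligands in a 1:1 Jurkat/Ramos lysate at 5 mg/ml protein, 2 h in a cold room. Bound kinases were eluted, quantified by antibody dot blot with infrared detection, and IC50 was taken from dose-response curves.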

In assay [2] the target is T2, PI3Kγ (Homo sapiens, UniProt P48736).
T2 construct: endogenous in cells; host or cells: Jurkat (ATCC TIB-152, clone E6-1) and Ramos (ATCC CRL-1596), 1:1 lysate mix
In words: kinobeads assay, PI3Kγ. The format is binding. The settings on record: 1:1 mix of Jurkat and Ramos cell lysates, read-out: Inhibition values (IC50 in μM) as determined in the kinobeads assay, PI3Kγ. The gist of the method: as §1

The target of assay [3] is T3, PI3Kα (Homo sapiens, UniProt P42336).
T3 construct: endogenous in cells; host or cells: Jurkat (ATCC TIB-152, clone E6-1) and Ramos (ATCC CRL-1596), 1:1 lysate mix
The experiment in a line: kinobeads assay, PI3Kα. It is filed as binding. The settings on record: 1:1 mix of Jurkat and Ramos cell lysates, read-out: Inhibition values (IC50 in μM) as determined in the kinobeads assay, PI3Kα. The gist of the method:
as §1

The target in assay [4] is T4, PI3Kδ (Homo sapiens, UniProt O00329).
T4 construct: endogenous in cells; host or cells: Jurkat (ATCC TIB-152, clone E6-1) and Ramos (ATCC CRL-1596), 1:1 lysate mix
The experiment in a line: kinobeads assay, PI3Kδ. It is filed as binding. The conditions noted are these: 1:1 mix of Jurkat and Ramos cell lysates, read-out: Inhibition values (IC50 in μM) as determined in the kinobeads assay, PI3Kδ. The method in brief:
as §1

Assay [5] addresses T5, mTOR (Homo sapiens, UniProt P42345).
T5 construct: endogenous in cells; host or cells: Jurkat (ATCC TIB-152, clone E6-1) and Ramos (ATCC CRL-1596), 1:1 lysate mix
In words: mTOR kinobeads assay (competition binding in cell lysate, dot blot detection). The settings on record: 1:1 mix of Jurkat and Ramos cell lysates, read-out: Inhibition values (IC50 in μM) as determined in the kinobeads assay, mTor. The method in brief:
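Competition binding in a 1:1 mix of Jurkat and Ramos cell lysates at 5 mg/ml total protein, with compounds in a 1:3 dilution series and an affinity matrix of two immobilized ligands, 2 h in the cold with shaking. mTOR captured on the beads was eluted and quantified by antibody dot blot with infrared detection. IC50 came from dose-response curves.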

The target of assay [6] is T6, PI3Kβ (Homo sapiens, UniProt P42338).
T6 construct: endogenous in cells; host or cells: Jurkat (ATCC TIB-152, clone E6-1) and Ramos (ATCC CRL-1596), 1:1 lysate mix
The experiment in a line: kinobeads assay, PI3Kβ. It is filed as binding. The settings on record: 1:1 mix of Jurkat and Ramos cell lysates, read-out: Inhibition values (IC50 in μM) as determined in the kinobeads assay, PI3Kβ. The method in brief:
as §1

The source of these data is patent publication US20140163023A1, “DIHYDROPYRROLO PYRIMIDINE DERIVATIVES AS MTOR INHIBITORS” (Cellzome Limited, priority 2011, published 2014).

Where a name gives a salt, the structure may show the parent alone.

For orientation: IC50 means the concentration that gives 50% inhibition.

T6 sequence (P42338 whole entry): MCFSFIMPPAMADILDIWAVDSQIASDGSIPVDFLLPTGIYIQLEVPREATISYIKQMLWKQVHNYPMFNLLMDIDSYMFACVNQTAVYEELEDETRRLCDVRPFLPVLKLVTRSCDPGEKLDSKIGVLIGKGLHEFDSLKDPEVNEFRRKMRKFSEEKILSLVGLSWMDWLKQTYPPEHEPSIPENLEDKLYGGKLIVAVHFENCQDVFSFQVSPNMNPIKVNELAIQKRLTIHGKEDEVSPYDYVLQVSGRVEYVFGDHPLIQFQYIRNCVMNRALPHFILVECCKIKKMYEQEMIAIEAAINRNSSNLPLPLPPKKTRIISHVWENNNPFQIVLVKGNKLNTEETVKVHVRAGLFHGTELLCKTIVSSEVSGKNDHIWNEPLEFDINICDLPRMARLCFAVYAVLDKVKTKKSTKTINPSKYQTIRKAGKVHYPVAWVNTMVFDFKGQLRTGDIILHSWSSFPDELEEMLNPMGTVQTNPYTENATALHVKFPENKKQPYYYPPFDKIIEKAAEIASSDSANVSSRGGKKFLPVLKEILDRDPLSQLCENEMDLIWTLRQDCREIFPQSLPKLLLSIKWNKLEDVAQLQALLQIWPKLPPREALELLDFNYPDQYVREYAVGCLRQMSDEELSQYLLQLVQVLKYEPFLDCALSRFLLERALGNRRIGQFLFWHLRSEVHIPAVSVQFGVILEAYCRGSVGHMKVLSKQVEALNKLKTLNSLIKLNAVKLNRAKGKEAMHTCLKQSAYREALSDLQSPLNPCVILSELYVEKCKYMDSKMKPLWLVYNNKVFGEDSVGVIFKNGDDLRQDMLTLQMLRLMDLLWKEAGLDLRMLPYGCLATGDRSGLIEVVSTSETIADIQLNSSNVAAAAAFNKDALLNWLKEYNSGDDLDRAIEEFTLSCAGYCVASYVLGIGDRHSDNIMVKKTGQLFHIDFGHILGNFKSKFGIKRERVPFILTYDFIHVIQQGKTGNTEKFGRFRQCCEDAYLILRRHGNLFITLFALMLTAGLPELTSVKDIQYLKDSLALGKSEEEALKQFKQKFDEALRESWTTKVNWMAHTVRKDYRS
T6 sequence (P27986 whole entry partner): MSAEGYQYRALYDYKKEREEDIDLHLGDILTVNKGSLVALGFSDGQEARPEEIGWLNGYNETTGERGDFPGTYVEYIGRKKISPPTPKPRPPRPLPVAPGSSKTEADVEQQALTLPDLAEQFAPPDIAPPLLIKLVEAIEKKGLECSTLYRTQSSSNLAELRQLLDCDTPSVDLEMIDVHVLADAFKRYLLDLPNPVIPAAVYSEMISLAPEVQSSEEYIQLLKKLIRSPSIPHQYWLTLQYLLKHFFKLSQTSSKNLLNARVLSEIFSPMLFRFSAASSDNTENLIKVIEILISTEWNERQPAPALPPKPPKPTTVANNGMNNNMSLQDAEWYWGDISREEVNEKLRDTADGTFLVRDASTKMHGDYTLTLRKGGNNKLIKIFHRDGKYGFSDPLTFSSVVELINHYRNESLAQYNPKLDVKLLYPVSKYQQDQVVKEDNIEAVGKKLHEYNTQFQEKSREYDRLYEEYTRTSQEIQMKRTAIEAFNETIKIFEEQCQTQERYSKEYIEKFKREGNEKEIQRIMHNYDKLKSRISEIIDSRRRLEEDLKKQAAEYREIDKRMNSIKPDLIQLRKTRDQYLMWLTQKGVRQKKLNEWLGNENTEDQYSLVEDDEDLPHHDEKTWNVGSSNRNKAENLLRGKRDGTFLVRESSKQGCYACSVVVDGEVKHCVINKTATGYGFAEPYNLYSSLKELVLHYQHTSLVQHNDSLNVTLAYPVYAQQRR
T2 sequence (P48736 whole entry): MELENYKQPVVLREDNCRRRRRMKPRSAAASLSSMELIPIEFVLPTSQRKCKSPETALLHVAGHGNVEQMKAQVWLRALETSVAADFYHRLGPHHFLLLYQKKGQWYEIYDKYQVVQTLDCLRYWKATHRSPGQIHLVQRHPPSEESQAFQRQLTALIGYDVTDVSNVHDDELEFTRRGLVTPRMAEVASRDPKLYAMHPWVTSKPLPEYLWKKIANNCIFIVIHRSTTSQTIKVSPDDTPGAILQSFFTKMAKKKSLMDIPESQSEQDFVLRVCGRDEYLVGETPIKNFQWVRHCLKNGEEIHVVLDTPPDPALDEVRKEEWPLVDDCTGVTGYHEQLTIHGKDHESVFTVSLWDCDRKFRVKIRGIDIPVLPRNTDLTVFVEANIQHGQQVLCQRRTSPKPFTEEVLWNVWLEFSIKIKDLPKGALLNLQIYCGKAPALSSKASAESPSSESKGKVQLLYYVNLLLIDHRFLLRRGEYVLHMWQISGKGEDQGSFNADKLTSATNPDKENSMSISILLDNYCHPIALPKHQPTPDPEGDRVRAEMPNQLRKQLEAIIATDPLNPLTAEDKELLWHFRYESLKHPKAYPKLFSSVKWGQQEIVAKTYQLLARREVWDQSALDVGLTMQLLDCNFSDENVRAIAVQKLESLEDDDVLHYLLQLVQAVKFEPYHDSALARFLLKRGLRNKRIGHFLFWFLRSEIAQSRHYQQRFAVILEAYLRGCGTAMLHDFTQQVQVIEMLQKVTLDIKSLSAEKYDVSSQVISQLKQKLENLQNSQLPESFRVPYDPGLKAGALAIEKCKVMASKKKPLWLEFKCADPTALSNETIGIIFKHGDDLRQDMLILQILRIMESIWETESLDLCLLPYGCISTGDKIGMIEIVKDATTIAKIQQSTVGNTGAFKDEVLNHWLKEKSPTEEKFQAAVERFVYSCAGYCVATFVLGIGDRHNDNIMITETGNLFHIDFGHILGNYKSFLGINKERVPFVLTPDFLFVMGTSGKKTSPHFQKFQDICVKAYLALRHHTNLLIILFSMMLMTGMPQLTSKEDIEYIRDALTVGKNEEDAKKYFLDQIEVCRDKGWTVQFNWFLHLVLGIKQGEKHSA
T3 sequence (P42336 whole entry): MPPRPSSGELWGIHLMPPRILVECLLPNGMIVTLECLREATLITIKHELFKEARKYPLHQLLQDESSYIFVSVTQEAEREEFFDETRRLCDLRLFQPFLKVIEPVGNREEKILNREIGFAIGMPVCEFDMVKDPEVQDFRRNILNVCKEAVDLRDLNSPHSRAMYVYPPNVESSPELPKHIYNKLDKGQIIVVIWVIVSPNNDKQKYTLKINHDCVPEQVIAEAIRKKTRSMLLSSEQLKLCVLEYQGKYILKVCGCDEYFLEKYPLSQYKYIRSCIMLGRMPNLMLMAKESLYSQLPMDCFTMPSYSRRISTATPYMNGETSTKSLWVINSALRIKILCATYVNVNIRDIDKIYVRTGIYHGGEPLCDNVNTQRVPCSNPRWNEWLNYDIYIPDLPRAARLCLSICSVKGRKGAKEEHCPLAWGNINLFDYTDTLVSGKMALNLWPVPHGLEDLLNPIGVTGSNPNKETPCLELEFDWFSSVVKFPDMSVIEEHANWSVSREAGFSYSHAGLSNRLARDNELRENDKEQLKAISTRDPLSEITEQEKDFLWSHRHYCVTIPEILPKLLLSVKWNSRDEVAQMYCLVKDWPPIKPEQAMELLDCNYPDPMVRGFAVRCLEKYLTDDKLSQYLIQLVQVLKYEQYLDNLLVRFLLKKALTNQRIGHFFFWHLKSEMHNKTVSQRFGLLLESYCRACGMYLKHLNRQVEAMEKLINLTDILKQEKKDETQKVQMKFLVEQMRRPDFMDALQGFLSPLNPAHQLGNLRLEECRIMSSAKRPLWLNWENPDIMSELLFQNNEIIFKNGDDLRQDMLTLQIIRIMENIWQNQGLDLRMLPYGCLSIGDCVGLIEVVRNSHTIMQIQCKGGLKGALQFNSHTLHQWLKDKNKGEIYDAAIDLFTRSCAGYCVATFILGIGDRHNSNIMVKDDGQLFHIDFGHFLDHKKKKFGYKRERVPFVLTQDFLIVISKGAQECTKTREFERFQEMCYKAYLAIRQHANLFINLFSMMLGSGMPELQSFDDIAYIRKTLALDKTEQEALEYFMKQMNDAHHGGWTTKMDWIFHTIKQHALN
T3 sequence (P27986 whole entry partner): as the sequence (P27986 whole entry partner) above
T4 sequence (O00329 whole entry): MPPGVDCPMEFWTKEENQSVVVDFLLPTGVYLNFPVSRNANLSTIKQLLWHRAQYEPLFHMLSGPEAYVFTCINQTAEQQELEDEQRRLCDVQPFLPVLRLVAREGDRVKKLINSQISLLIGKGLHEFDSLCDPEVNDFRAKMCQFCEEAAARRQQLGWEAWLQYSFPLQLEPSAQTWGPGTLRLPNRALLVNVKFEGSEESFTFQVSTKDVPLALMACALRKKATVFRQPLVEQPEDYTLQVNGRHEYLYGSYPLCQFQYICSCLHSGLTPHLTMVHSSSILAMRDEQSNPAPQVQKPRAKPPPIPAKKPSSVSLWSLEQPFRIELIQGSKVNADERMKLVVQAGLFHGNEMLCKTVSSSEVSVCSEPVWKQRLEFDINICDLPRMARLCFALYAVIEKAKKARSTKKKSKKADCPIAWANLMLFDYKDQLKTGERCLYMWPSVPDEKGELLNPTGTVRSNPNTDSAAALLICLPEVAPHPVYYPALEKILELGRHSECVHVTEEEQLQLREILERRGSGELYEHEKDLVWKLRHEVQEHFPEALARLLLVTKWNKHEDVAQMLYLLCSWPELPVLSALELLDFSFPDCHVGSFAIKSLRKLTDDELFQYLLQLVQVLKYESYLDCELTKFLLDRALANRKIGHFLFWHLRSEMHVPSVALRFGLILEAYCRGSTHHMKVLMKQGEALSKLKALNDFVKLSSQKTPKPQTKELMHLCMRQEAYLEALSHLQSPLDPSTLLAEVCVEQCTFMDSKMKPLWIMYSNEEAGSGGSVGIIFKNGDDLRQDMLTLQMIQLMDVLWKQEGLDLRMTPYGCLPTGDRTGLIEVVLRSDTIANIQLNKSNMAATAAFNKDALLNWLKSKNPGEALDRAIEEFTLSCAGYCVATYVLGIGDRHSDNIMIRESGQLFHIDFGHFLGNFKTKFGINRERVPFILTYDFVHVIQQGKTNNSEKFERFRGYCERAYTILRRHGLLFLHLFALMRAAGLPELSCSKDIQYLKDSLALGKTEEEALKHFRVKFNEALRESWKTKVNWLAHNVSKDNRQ
T4 sequence (P27986 whole entry partner): as the sequence (P27986 whole entry partner) above

Regarding `C[C@H]1COCCN1c1nc2c(c(-c3ccc(NC(=O)NC4CC4)cc3)n1)CN(C(N)=O)C2` [Example 42, (S)-4-(4-(3-cyclopropylureido)phenyl)-2-(3-methylmorpholino)-5H-pyrrolo[3,4-d]pyrimidine-6(7H)-carboxamide 2,2,2-trifluoroacetate], the IC50 in assay [1] is greater than 100 µM; in assay [2] it was greater than 100 µM; in assay [3], 10 to 100 µM; in assay [4] it was 10 to 100 µM; in assay [5], 0.1 to 1 µM; in assay [6], 10 to 100 µM.
Consider `O=C(NCCO)Nc1ccc(-c2nc(N3CC4CCC(C3)O4)nc3c2CNC3)cc1` [Example 43, 1-(4-(2-(8-oxa-3-azabicyclo[3.2.1]octan-3-yl)-6,7-dihydro-5H-pyrrolo[3,4-d]pyrimidin-4-yl)phenyl)-3-(2-hydroxyethyl)urea hydrochloride], for which the IC50 in assay [1] was 1 to 10 µM; in assay [2], greater than 100 µM; in assay [3] it was greater than 100 µM; in assay [4], greater than 100 µM; in assay [5], no more than 0.1 µM; in assay [6] it was greater than 100 µM.
As for `CCNC(=O)Nc1ccc(-c2nc(N3CC4CCC(C3)O4)nc3c2CNC3)cc1` [Example 44, 1-(4-(2-(8-oxa-3-azabicyclo[3.2.1]octan-3-yl)-6,7-dihydro-5H-pyrrolo[3,4-d]pyrimidin-4-yl)phenyl)-3-ethylurea hydrochloride], the IC50 is 10 to 100 µM in assay [1]; greater than 100 µM in assay [2]; greater than 100 µM in assay [3]; 10 to 100 µM in assay [4]; 0.1 to 1 µM in assay [5]; 10 to 100 µM in assay [6].
In the case of `CC(O)CNC(=O)Nc1ccc(-c2nc(N3CCOC[C@@H]3C)nc3c2CN(C(C)C)C3)cc1` (stereo partly drawn) [Example 45, 1-(2-hydroxypropyl)-3-(4-(6-isopropyl-2-((S)-3-methylmorpholino)-6,7-dihydro-5H-pyrrolo[3,4-d]pyrimidin-4-yl)phenyl)urea], the IC50 in assay [1] was greater than 100 µM; in assay [2], greater than 100 µM; in assay [3] it was 10 to 100 µM; in assay [4], greater than 100 µM; in assay [5], 1 to 10 µM; in assay [6], greater than 100 µM.
`CCNC(=O)Nc1ccc(-c2nc(N3CCOC[C@@H]3C)nc3c2CN(C(C)C)C3)cc1` [Example 46, (S)-1-ethyl-3-(4-(6-isopropyl-2-(3-methylmorpholino)-6,7-dihydro-5H-pyrrolo[3,4-d]pyrimidin-4-yl)phenyl)urea 2,2,2-trifluoroacetate]: the IC50 in assay [1] was greater than 100 µM; in assay [2] it was greater than 100 µM; in assay [3] it was greater than 100 µM; in assay [4] it was greater than 100 µM; in assay [5] it was 1 to 10 µM; in assay [6], greater than 100 µM.
As to `C[C@H]1COCCN1c1nc2c(c(-c3ccc(NC(=O)NC4CC4)cc3)n1)CN(C(=O)CN1CCOCC1)C2` [Example 47, (S)-1-cyclopropyl-3-(4-(2-(3-methylmorpholino)-6-(2-morpholinoacetyl)-6,7-dihydro-5H-pyrrolo[3,4-d]pyrimidin-4-yl)phenyl)urea 2,2,2-trifluoroacetate], the IC50 is greater than 100 µM in assay [1]; greater than 100 µM in assay [2]; greater than 100 µM in assay [3]; greater than 100 µM in assay [4]; 1 to 10 µM in assay [5]; 10 to 100 µM in assay [6].
On to `CC(C)CN1Cc2nc(N3CC4CCC(C3)O4)nc(-c3ccc(NC(=O)NCCO)cc3)c2C1` [Example 48, 1-(4-(2-(8-oxa-3-azabicyclo[3.2.1]octan-3-yl)-6-isobutyl-6,7-dihydro-5H-pyrrolo[3,4-d]pyrimidin-4-yl)phenyl)-3-(2-hydroxyethyl)urea 2,2,2-trifluoroacetate], for which the IC50 in assay [1] is greater than 100 µM; in assay [2], greater than 100 µM; in assay [3] it was greater than 100 µM; in assay [4], greater than 100 µM; in assay [5] it was 1 to 10 µM; in assay [6], greater than 100 µM.
On to `CCNC(=O)Nc1ccc(-c2nc(N3CC4CCC(C3)O4)nc3c2CN(C(C)C)C3)cc1` [Example 49, 1-(4-(2-(8-oxa-3-azabicyclo[3.2.1]octan-3-yl)-6-isopropyl-6,7-dihydro-5H-pyrrolo[3,4-d]pyrimidin-4-yl)phenyl)-3-ethylurea 2,2,2-trifluoroacetate], for which the IC50 in assay [1] is greater than 100 µM; in assay [2], greater than 100 µM; in assay [3], greater than 100 µM; in assay [4], greater than 100 µM; in assay [5] it was 1 to 10 µM; in assay [6], greater than 100 µM.
With `CS(=O)(=O)N1Cc2nc(N3CC4CCC(C3)O4)nc(-c3ccc(NC(=O)NC4CC4)cc3)c2C1` [Example 50, 1-(4-(2-(8-oxa-3-azabicyclo[3.2.1]octan-3-yl)-6-(methylsulfonyl)-6,7-dihydro-5H-pyrrolo[3,4-d]pyrimidin-4-yl)phenyl)-3-cyclopropylurea], the concentration for half-maximal inhibition (IC50) in assay [1] is greater than 100 µM; in assay [2] it was greater than 100 µM; in assay [3] it was greater than 100 µM; in assay [4], greater than 100 µM; in assay [5] it was 1 to 10 µM; in assay [6], greater than 100 µM.
As to `CC(CO)NC(=O)Nc1ccc(-c2nc(N3CCOC[C@@H]3C)nc3c2CN(C(C)C)C3)cc1` (stereo partly drawn) [Example 51, 1-(1-hydroxypropan-2-yl)-3-(4-(6-isopropyl-2-((S)-3-methylmorpholino)-6,7-dihydro-5H-pyrrolo[3,4-d]pyrimidin-4-yl)phenyl)urea 2,2,2-trifluoroacetate], the half-inhibitory concentration (IC50) was greater than 100 µM in assay [1]; greater than 100 µM in assay [2]; greater than 100 µM in assay [3]; greater than 100 µM in assay [4]; 1 to 10 µM in assay [5]; greater than 100 µM in assay [6].
Turning to `CC(C)N1Cc2nc(N3CCOC[C@@H]3C)nc(-c3ccc(NC(=O)NCCC#N)cc3)c2C1` [Example 52, (S)-1-(2-cyanoethyl)-3-(4-(6-isopropyl-2-(3-methylmorpholino)-6,7-dihydro-5H-pyrrolo[3,4-d]pyrimidin-4-yl)phenyl)urea 2,2,2-trifluoroacetate], the IC50 in assay [1] was greater than 100 µM; in assay [2], greater than 100 µM; in assay [3], greater than 100 µM; in assay [4], greater than 100 µM; in assay [5], 1 to 10 µM; in assay [6], greater than 100 µM.
